Laboratory results from patent US9814699B2, “Chemical compounds” (Janssen Pharmaceuticals, Inc., priority 2009, dated 2017).

Columns and labels:
[1] = tested on: HCV genotype 1b subgenomic replicon; test: HCV replicon assay, genotype 1b subgenomic replicon (ET cell line, luciferase); type: cell-based; settings: Hepatitis C virus; genotype 1b replicon ET cell line, luciferase activity measured 48 hours later; read-out: Replicon 1B pEC50 (converted)
Protocol: (§1) Protocol for Testing and Data Analysis of Compounds in the HCV Replicon Assay
(§2) Compounds were assayed for activity against HCV using the genotype 1a and 1b subgenomic replicon model systems. Stable cell lines bearing the genotype 1a and 1b replicons were used for screening of compounds. Both replicons are bicistronic and contain the firefly luciferase gene. The ET cell line is stably transfected with RNA transcripts harboring a I389luc-ubi-neo/NS3-3′/ET replicon with firefly luciferase-ubiquitin-neomycin phosphotransferase fusion protein and EMCV-IRES driven NS3-5B polyprotein containing the cell culture adaptive mutations (E1202G; T1280I; K1846T) (Krieger at al, 2001 and unpublished). The genotype 1a replicon is a stable cell line licensed from Apath LLC, modified to contain the firefly luciferase gene. The cells were grown in DMEM, supplemented with 10% fetal calf serum, 2 mM Glutamine, Penicillin (100 IU/mL)/Streptomycin (100 μg/mL), 1× nonessential amino acids, and 250-500 μg/mL G418 (“Geneticin”). They were all available through Life Technologies (Bethesda, Md.). The cells were plated at 5×10^3 cells/well in 384 well plates containing compounds. The final concentration of compounds ranged between 0.03 pM to 50 μm and the final DMSO concentration of 0.5-1%.
(§3) Luciferase activity was measured 48 hours later by adding a Steady glo reagent (Promega, Madison, Wis.). Percent inhibition of replication data was plotted relative to no compound control. Under the same condition, cytotoxicity of the compounds was determined using cell titer glo (Promega, Madison, Ws). EC50s were determined from an 11 point dose response curve using 3-4-fold serial dilution for each compound, which spans a concentration range >1000 fold. The level of inhibition for each compound was determined with Activity Base or with BioAssay plus the Excel XC50 module. Percent inhibition was determined with the following equation where the cross-talk corrected value is the value from the test well, the compound positive control mean is the average value of the wells with no compound present, and the DMSO negative control mean is the average value of the wells with DMSO but no cells present.
(§4) [formula] These normalized values are exported to EC50 where they are plotted against the molar compound concentrations using the standard four parameter logistic equation: […]

[2] = tested on: HCV genotype 1a subgenomic replicon; test: HCV replicon assay, genotype 1a subgenomic replicon (luciferase); type: cell-based; settings: Hepatitis C virus; genotype 1a replicon stable cell line, luciferase activity measured 48 hours later; read-out: Replicon 1A pEC50 (converted)
Protocol: as §1, §2, §3, §4

| SMILES | EC50 [1] [pM] | EC50 [2] [pM] |
| --- | --- | --- |
| [2H]C1([2H])OC2(C[C@@H](c3ncc(-c4ccc(-c5ccc(-c6cnc([C@@H]7CCCN7C(=O)[C@@H](NC(=O)OC)C(C)C)[nH]6)cc5)cc4)[nH]3)N(C(=O)[C@@H](NC(=O)OC)C(C)C)C2)OC1([2H])[2H] [Example 9, methyl [(1S)-2-methyl-1-({(2S)-2-[4-(4′-{2-[(8S)-7-((2S)-3-methyl-2-{[(methyloxy)carbonyl]amino}butanoyl)-1,4-dioxa-7-azaspiro[4.4]non-8-yl]-1H-imidazol-4-yl}-4-biphenylyl)-1H-imidazol-2-yl]-1-pyrrolidinyl}carbonyl)propyl]carbamate-d4] | 6.31 | 31.6 |
| COC(=O)N[C@H](C(=O)N1CCC[C@H]1c1nc(-c2ccc(-c3ccc(-c4c[nH]c([C@@H]5CC6(CN5C(=O)[C@@H](NC(=O)OC)C(C)C)SCCS6)n4)cc3)cc2)c[nH]1)C(C)C [Example 12, methyl [(1S)-2-methyl-1-({(2S)-2-[4-(4′-{2-[(8S)-7-((2S)-3-methyl-2-{[(methyloxy)carbonyl]amino}butanoyl)-1,4-dithia-7-azaspiro[4.4]non-8-yl]-1H-imidazol-4-yl}-4-biphenylyl)-1H-imidazol-2-yl]-1-pyrrolidinyl}carbonyl)propyl]carbamate] | 3.98 | 79.4 |
| COC(=O)N[C@H](C(=O)N1CCC[C@H]1c1ncc(-c2ccc(-c3ccc(-c4cnc([C@@H]5CC6(CN5C(=O)[C@@H](NC(=O)OC)C(C)C)O[C@@H](C)C[C@H](C)O6)[nH]4)cc3)cc2)[nH]1)C(C)C (stereo partly drawn) [Example 1, methyl [(1S)-1-({(2S)-2-[4-(4′-{2-[(3S,7S,9S)-7,9-dimethyl-2-((2S)-3-methyl-2-{[(methyloxy)carbonyl]amino}butanoyl)-6,10-dioxa-2-azaspiro[4.5]dec-3-yl]-1H-imidazol-4-yl}-4-biphenylyl)-1H-imidazol-2-yl]-1-pyrrolidinyl}carbonyl)-2-methylpropyl]carbamate] | 10 | 1580 |
| COC(=O)N[C@H](C(=O)N1CC2(C[C@H]1c1ncc(-c3ccc(-c4ccc(-c5cnc([C@@H]6CC7(CN6C(=O)[C@@H](NC(=O)OC)C(C)C)OCCO7)[nH]5)cc4)cc3)[nH]1)OCCO2)C(C)C [Example 4, dimethyl (4,4′-biphenyldiylbis{1H-imidazole-4,2-diyl(8S)-1,4-dioxa-7-azaspiro[4.4]nonane-8,7-diyl[(2S)-3-methyl-1-oxo-1,2-butanediyl]})biscarbamate] | 10 | 39.8 |
| CNC(=O)N1CC2(CC(c3ncc(-c4ccc(-c5ccc(-c6cnc([C@@H]7CCCN7C(=O)[C@@H](NC(=O)OC)C(C)C)[nH]6)cc5)cc4)[nH]3)N(C(=O)[C@@H](NC(=O)OC)C(C)C)C2)C1 (stereo partly drawn) [Example 27, methyl [(1S)-2-methyl-1-({(2S)-2-[4-(4′-{2-[2-[(methylamino)carbonyl]-6-((2S)-3-methyl-2-{[(methyloxy)carbonyl]amino}butanoyl)-2,6-diazaspiro[3.4]oct-7-yl]-1H-imidazol-4-yl}-4-biphenylyl)-1H-imidazol-2-yl]-1-pyrrolidinyl}carbonyl)propyl]carbamate] | 251 | 6310 |
| COC(=O)N[C@H](C(=O)N1CC2(CC1c1ncc(-c3ccc(-c4ccc(-c5cnc([C@@H]6CCCN6C(=O)[C@@H](NC(=O)OC)C(C)C)[nH]5)cc4)cc3)[nH]1)CN(C(=O)OC(C)(C)C)C2)C(C)C (stereo partly drawn) [Example 23, 1,1-dimethylethyl 6-{N-[(methyloxy)carbonyl]-L-valyl}-7-(4-{4′-[2-((2S)-1-{N-[(methyloxy)carbonyl]-L-valyl}-2-pyrrolidinyl)-1H-imidazol-4-yl]-4-biphenylyl}-1H-imidazol-2-yl)-2,6-diazaspiro[3.4]octane-2-carboxylate] | 10 | 1260 |
| COC(=O)N[C@H](C(=O)N1CC2(CCN(C(=O)OC(C)(C)C)CC2)CC1c1ncc(-c2ccc(-c3ccc(-c4cnc([C@@H]5CCCN5C(=O)[C@@H](NC(=O)OC)C(C)C)[nH]4)cc3)cc2)[nH]1)C(C)C (stereo partly drawn) [Example 19, 1,1-dimethylethyl 2-{N-[(methyloxy)carbonyl]-L-valyl}-3-(4-{4′-[2-((2S)-1-{N-[(methyloxy)carbonyl]-L-valyl}-2-pyrrolidinyl)-1H-imidazol-4-yl]-4-biphenylyl}-1H-imidazol-2-yl)-2,8-diazaspiro[4.5]decane-8-carboxylate] | 39.8 | 10000 |
| COC(=O)N[C@H](C(=O)N1CCC[C@H]1c1ncc(-c2ccc(-c3ccc(-c4cnc([C@@H]5CC6(CN5C(=O)[C@@H](NC(=O)OC)C(C)C)OCCCO6)[nH]4)cc3)cc2)[nH]1)C(C)C [Example 6, methyl [(1S)-2-methyl-1-({(2S)-2-[4-(4′-{2-[(3S)-2-((2S)-3-methyl-2-{[(methyloxy)carbonyl]amino}butanoyl)-6,10-dioxa-2-azaspiro[4.5]dec-3-yl]-1H-imidazol-4-yl}-4-biphenylyl)-1H-imidazol-2-yl]-1-pyrrolidinyl}carbonyl)propyl]carbamate] | 7.94 | 25.1 |
| COC(=O)N[C@H](C(=O)N1CCC[C@H]1c1ncc(-c2ccc(-c3ccc(-c4cnc(C5CCC6(CCOCC6)N5C(=O)[C@@H](NC(=O)OC)C(C)C)[nH]4)cc3)cc2)[nH]1)C(C)C (stereo partly drawn) [Example 30, methyl [(1S)-2-methyl-1-({(2S)-2-[4-(4′-{2-[1-((2S)-3-methyl-2-{[(methyloxy)carbonyl]amino}butanoyl)-8-oxa-1-azaspiro[4.5]dec-2-yl]-1H-imidazol-4-yl}-4-biphenylyl)-1H-imidazol-2-yl]-1-pyrrolidinyl}carbonyl)propyl]carbamate] | 63.1 | 1580 |
| COC(=O)N[C@H](C(=O)N1CCC[C@H]1c1ncc(-c2ccc(-c3ccc(-c4cnc([C@@H]5CC6(CN5C(=O)[C@@H](NC(=O)OC)C(C)C)OCC(C)(C)CO6)[nH]4)cc3)cc2)[nH]1)C(C)C [Example 7, methyl [(1S)-1-({(2S)-2-[4-(4′-{2-[(3S)-8,8-dimethyl-2-((2S)-3-methyl-2-{[(methyloxy)carbonyl]amino}butanoyl)-6,10-dioxa-2-azaspiro[4.5]dec-3-yl]-1H-imidazol-4-yl}-4-biphenylyl)-1H-imidazol-2-yl]-1-pyrrolidinyl}carbonyl)-2-methylpropyl]carbamate] | 2.51 | 794 |
| COC(=O)N[C@H](C(=O)N1CC2(CCNCC2)CC1c1ncc(-c2ccc(-c3ccc(-c4cnc([C@@H]5CCCN5C(=O)[C@@H](NC(=O)OC)C(C)C)[nH]4)cc3)cc2)[nH]1)C(C)C (stereo partly drawn) [Example 20, methyl [(1S)-2-methyl-1-({(2S)-2-[4-(4′-{2-[2-((2S)-3-methyl-2-{[(methyloxy)carbonyl]amino}butanoyl)-2,8-diazaspiro[4.5]dec-3-yl]-1H-imidazol-4-yl}-4-biphenylyl)-1H-imidazol-2-yl]-1-pyrrolidinyl}carbonyl)propyl]carbamate] | 1580 | > 31600 |
| COC(=O)N[C@H](C(=O)N1CC2(CCS(=O)(=O)CC2)CC1c1ncc(-c2ccc(-c3ccc(-c4cnc([C@@H]5CCCN5C(=O)[C@@H](NC(=O)OC)C(C)C)[nH]4)cc3)cc2)[nH]1)C(C)C (stereo partly drawn) [Example 16, methyl [(1S)-2-methyl-1-({(2S)-2-[4-(4′-{2-[2-((2S)-3-methyl-2-{[(methyloxy)carbonyl]amino}butanoyl)-8,8-dioxido-8-thia-2-azaspiro[4.5]dec-3-yl]-1H-imidazol-4-yl}-4-biphenylyl)-1H-imidazol-2-yl]-1-pyrrolidinyl}carbonyl)propyl]carbamate] | 39.8 | 398 |
| COC(=O)N[C@H](C(=O)N1CC2(CCN(C(=O)OC)CC2)CC1c1ncc(-c2ccc(-c3ccc(-c4cnc([C@@H]5CCCN5C(=O)[C@@H](NC(=O)OC)C(C)C)[nH]4)cc3)cc2)[nH]1)C(C)C (stereo partly drawn) [Example 22, methyl 2-{N-[(methyloxy)carbonyl]-L-valyl}-3-(4-{4′-[2-((2S)-1-{N-[(methyloxy)carbonyl]-L-valyl}-2-pyrrolidinyl)-1H-imidazol-4-yl]-4-biphenylyl}-1H-imidazol-2-yl)-2,8-diazaspiro[4.5]decane-8-carboxylate] | 15.8 | 794 |
| CC[C@H](NC(=O)OC)C(=O)N1C(c2nc(-c3ccc(-c4ccc(-c5cnc([C@@H]6CCCN6C(=O)[C@@H](NC(=O)OC)C(C)C)[nH]5)cc4)cc3)c[nH]2)CCC12CCC(F)(F)CC2 (stereo partly drawn) [Example 33, methyl [(1S)-1-({8,8-difluoro-2-[4-(4′-{2-[(2S)-1-((2S)-3-methyl-2-{[(methyloxy)carbonyl]amino}butanoyl)-2-pyrrolidinyl]-1H-imidazol-4-yl}-4-biphenylyl)-1H-imidazol-2-yl]-1-azaspiro[4.5]dec-1-yl}carbonyl)propyl]carbamate] | 15.8 | 1000 |
